In brackets after ≈: the same amount, converted by molar mass.
Experiments:
[1] = Lipophilicity, log P of the compound; settings: octanol/water
[2] = tested on: Mycobacterium tuberculosis; test: Antitubercular activity against Mycobacterium tuberculosis; assay type: functional; settings: for MIC: Mycobacterium tuberculosis
[3] = tested on: Mycobacterium tuberculosis; test: Antitubercular activity against Mycobacterium tuberculosis H37Rv; assay type: functional; settings: for MIC: Mycobacterium tuberculosis, H37Rv

Structure (SMILES)	logP ([1]; logP)	log(1/MIC) [2]	MIC [2]	logP [1]	log(1/MIC) [3]	MIC [3]
Cc1ncnc(O)c1C(=O)NN	-2.88	-2.6	400 µg/mL (≈ 2380 µM)	–	–	–
N/N=C/C(O)C(O)C(O)C(CC(=O)c1ccncc1)C(=O)c1ccncc1 (stereo not drawn)	–	1.4	0.04 µg/mL (≈ 0.107 µM)	-5.16	–	–
CCCc1cc(C(=O)NN)ccn1	-0.615	–	–	–	-0.9953	9.89 µg/mL (≈ 55.2 µM)
CC(C)Cc1cc(C(=O)NN)ccn1	-0.216	-1.94	87 µg/mL (≈ 450 µM)	–	–	–
COc1cc(C(=O)NN)ccn1	-2.03	–	–	–	-1.408	25.6 µg/mL (≈ 153 µM)
CCOc1cc(C(=O)NN)ccn1	-1.5	-1.91	81.5 µg/mL (≈ 450 µM)	–	–	–
NNC(=O)c1ccnc(N)c1	-2.84	–	–	–	-0.3436	2.21 µg/mL (≈ 14.5 µM)
CC(=O)Nc1cc(C(=O)NN)ccn1	-2.93	-2.62	418 µg/mL (≈ 2150 µM)	–	–	–
CC(=O)NCc1cc(C(=O)NN)ccn1	-3.75	–	–	–	-1.704	50.6 µg/mL (≈ 243 µM)
CCN(CC)c1cc(C(=O)NN)ccn1	-0.546	-2.17	149 µg/mL (≈ 717 µM)	–	–	–
NNC(=O)c1ccnc(Cl)c1	-1.61	-1.83	67.3 µg/mL (≈ 392 µM)	–	–	–
NNC(=O)c1ccnc(I)c1	-1.2	–	–	–	-1.825	66.8 µg/mL (≈ 254 µM)
NNC(=O)c1ccnc([N+](=O)[O-])c1	-2.21	-1.83	67.6 µg/mL (≈ 371 µM)	–	–	–
NNC(=O)c1ccnc(-c2ccccc2)c1	-0.634	-1.03	10.7 µg/mL (≈ 50 µM)	–	–	–
NNC(=O)c1ccnc(Cc2ccccc2)c1	-0.105	–	–	–	-0.942	8.75 µg/mL (≈ 38.5 µM)
C=Cc1cc(C(=O)NN)ccn1	-1.69	–	–	–	-0.7567	5.71 µg/mL (≈ 35 µM)
CC(O)(NNC(=O)c1ccncc1)C(=O)O (stereo not drawn)	-2.78	1.22	0.06 µg/mL (≈ 0.266 µM)	–	–	–
O=C(NNC(O)C(Cl)(Cl)Cl)c1ccncc1 (stereo not drawn)	–	1.4	0.04 µg/mL (≈ 0.141 µM)	-1.22	–	–
CC(C)(C#N)NNC(=O)c1ccncc1	-0.976	1.22	0.06 µg/mL (≈ 0.294 µM)	–	–	–
CCC(CC)=NNC(=O)c1ccncc1	-0.469	1.7	0.02 µg/mL (≈ 0.0974 µM)	–	–	–
CCCCC/C(C)=N/NC(=O)c1ccncc1	0.589	1.52	0.03 µg/mL (≈ 0.129 µM)	–	–	–

Structure (SMILES)	logP ([1]; logP)	log(1/MIC) [2]	MIC [2]	logP [1]	log(1/MIC) [3]	MIC [3]
CCN(CC)c1ccc(/C=N/NC(=O)c2ccncc2)cc1	2.53	0.22	0.6 µg/mL (≈ 2.02 µM)	–	–	–
CCN(CC)CCN(C)c1ccc(/C=N/NC(=O)c2ccncc2)cc1	2.43	1.1	0.08 µg/mL (≈ 0.226 µM)	–	–	–
N/N=C/C(CC(=O)c1ccncc1)C(=O)c1ccncc1 (stereo not drawn)	-2.83	0.82	0.15 µg/mL (≈ 0.531 µM)	–	–	–
CC(C)/C=N\NC(=O)c1ccncc1	-0.998	1	0.1 µg/mL (≈ 0.523 µM)	–	–	–
CC(C)CNNC(=O)c1ccncc1	-0.719	1	0.1 µg/mL (≈ 0.517 µM)	–	–	–
CCC(C)NNC(=O)c1ccncc1 (stereo not drawn)	-0.719	0.4	0.4 µg/mL (≈ 2.07 µM)	–	–	–
NNC(=O)c1ccccn1	-1.95	0.82	0.15 µg/mL (≈ 1.09 µM)	–	–	–
NNC(=O)c1ccnc(F)c1	-2.18	-1.61	40.3 µg/mL (≈ 260 µM)	–	–	–
NNC(=O)c1c[nH]c(S)n1	-2.26	-2.4	250 µg/mL (≈ 1580 µM)	–	–	–
Cc1cnccc1C(=O)NN	-1.67	-2.3	200 µg/mL (≈ 1320 µM)	–	–	–
NNC(=O)Cc1ccccc1	-1.22	-1.08	12 µg/mL (≈ 79.9 µM)	–	–	–
NNC(=O)c1ccco1	-0.139	1.22	0.06 µg/mL (≈ 0.476 µM)	–	–	–
NNC(=O)c1ccnc(Br)c1	-1.46	-2.12	133 µg/mL (≈ 616 µM)	–	–	–
C/C=N/NC(=O)c1ccncc1	-1.93	1.4	0.04 µg/mL (≈ 0.245 µM)	–	–	–
CN1CCC(C(=O)NN)CC1	-2.49	-2.78	600 µg/mL (≈ 3820 µM)	–	–	–
O=C(NO)c1ccncc1	-2.65	-2.08	120 µg/mL (≈ 869 µM)	–	–	–
CC(C)=NNC(=O)c1ccncc1	-1.53	1.7	0.02 µg/mL (≈ 0.113 µM)	–	–	–
O=C(NN=C1CCCCC1)c1ccncc1	-0.334	2.22	0.01 µg/mL (≈ 0.046 µM)	–	–	–
NNC(=O)c1ccccc1 [BENZOIC ACID HYDRAZIDE]	–	0.22	0.6 µg/mL (≈ 4.41 µM)	-0.845	–	–
CC(C)NNC(=O)c1ccncc1 [IPRONIAZID]	–	0.4	0.4 µg/mL (≈ 2.23 µM)	-1.248	–	–

Reference: ChEMBL document CHEMBL3091347, “Comparison of Multiple Linear Regressions and Neural Networks based QSAR models for the design of new antitubercular compounds” (Eur J Med Chem, 2013)
